Measurements from patent publication US9527819B2, “Pyridazine compounds, compositions and methods” (NORTHWESTERN UNIVERSITY, priority 2004, dated 2016).

Tests used:
[1] = system: BV-2 mouse microglial cells; assay: LPS-stimulated proinflammatory cytokine production in BV-2 microglial cell culture assay; format: cell-based; settings: for IL-1β production / TNFα production: LPS 100 ng/ml, 16 hrs, levels in cell lysates
Method: EL-1/3 and TNFa levels in cell lysates were determined by electro-chemiluminescent detection in a Meso-Scale Discovery (MSD) kit, as per the manufacturer's instructions.
Data are the mean+/− SEM of triplicate determinations.

[2] = Stability in liver microsomes; format: in vitro ADME, rat; settings: 1 μM, NADPH-regenerating system, 37° C.
Description: The HPLC system (Dionex Corp., Sunnyvale, Calif.) includes a Dionex […] pump, a Phenomenex Luna.

[3] = system: Aβ-infused mice (hippocampus); assay: Human Aβ infusion mouse model of neuroinflammation and neuronal injury; format: in vivo
Description: Briefly, oligomeric […] was infused ICV for 28 days with a micro-osmotic pump. […] At post-operative day 60, mice were perfused and sacrificed, and hippocampal endpoints measured as previously described. Endpoint assays included immunohistochemical detection of activated astrocytes and microglia by glial fibrillary acidic protein (GFAP) and F4/80 staining, measurement of the levels of the pro-inflammatory cytokines IL-1|S, TNFa, and S100B by ELISA, and determination of synaptic damage by analysis of the levels of postsynaptic density protein-95 (PSD-95). […] Cultures were treated with control buffer, C, or activated in the absence, A, or presence, A+188, of 7.5 μMW01-5-188WH. […] Bar=125 μm. […] A schematic of the experimental paradigm is shown. […] Bars=25 μm. […] Quantification of amyloid burden from all mice (n=5/group) was done by determination of the amyloid load. Data are mean±SEM. […] (C) Spontaneous alternation of mice in the Y-maze, a hippocampus-dependent spatial learning task, was measured for 10 days during the 7th and 8th week after the start of Aβ infusion. Data are mean±SEM of n=5 or 10 per group.

[4] = Oral administration / brain uptake assay; settings: mouse, in vivo
Method: At various times (0-60 min) after administration, mice were sacrificed, blood removed by cardiac puncture, and brains immediately harvested, weighed, quick-frozen in liquid nitrogen, and stored at −80° C. until assayed. Brain tissue was homogenized in 1.5 ml of 0.1 M perchloric acid. After centrifugation (12,000×g for 10 min), the supernatant was neutralized, with 1 M NaOH and then extracted three times with 2 ml of dichloromethane by centrifugation at 3,000×g for 5 min. The organic phases from the three successive extractions were pooled and then vaporated to dryness under reduced pressure. The dried sample was reconstituted in 100 ul of HPLC mobile phase (80% acetonitrile, 0.08% formic acid, 20% H2O), and 20 μl of the reconstituted material was injected into the HPLC system. […] A standard curve of the test compound was prepared by adding increasing concentrations of the compound to brain, tissue from untreated mice, then extracting the brains and performing HPLC analysis as described above. The area under the curve increased linearly with the concentration of the compound over the range of concentrations investigated, with a correlation coefficient of 0.99.

hERG K+ channel = target: T1, hERG K+ channel (Homo sapiens, UniProt Q12809); assay: hERG channel activity patch clamp inhibition assay; format: cell-based; settings: three concentrations (0.1, 1, 10 μM), whole cell patch clamp
T1 construct: MDS PharmaService (commercial assay service)
T1 sequence (Q12809 whole entry): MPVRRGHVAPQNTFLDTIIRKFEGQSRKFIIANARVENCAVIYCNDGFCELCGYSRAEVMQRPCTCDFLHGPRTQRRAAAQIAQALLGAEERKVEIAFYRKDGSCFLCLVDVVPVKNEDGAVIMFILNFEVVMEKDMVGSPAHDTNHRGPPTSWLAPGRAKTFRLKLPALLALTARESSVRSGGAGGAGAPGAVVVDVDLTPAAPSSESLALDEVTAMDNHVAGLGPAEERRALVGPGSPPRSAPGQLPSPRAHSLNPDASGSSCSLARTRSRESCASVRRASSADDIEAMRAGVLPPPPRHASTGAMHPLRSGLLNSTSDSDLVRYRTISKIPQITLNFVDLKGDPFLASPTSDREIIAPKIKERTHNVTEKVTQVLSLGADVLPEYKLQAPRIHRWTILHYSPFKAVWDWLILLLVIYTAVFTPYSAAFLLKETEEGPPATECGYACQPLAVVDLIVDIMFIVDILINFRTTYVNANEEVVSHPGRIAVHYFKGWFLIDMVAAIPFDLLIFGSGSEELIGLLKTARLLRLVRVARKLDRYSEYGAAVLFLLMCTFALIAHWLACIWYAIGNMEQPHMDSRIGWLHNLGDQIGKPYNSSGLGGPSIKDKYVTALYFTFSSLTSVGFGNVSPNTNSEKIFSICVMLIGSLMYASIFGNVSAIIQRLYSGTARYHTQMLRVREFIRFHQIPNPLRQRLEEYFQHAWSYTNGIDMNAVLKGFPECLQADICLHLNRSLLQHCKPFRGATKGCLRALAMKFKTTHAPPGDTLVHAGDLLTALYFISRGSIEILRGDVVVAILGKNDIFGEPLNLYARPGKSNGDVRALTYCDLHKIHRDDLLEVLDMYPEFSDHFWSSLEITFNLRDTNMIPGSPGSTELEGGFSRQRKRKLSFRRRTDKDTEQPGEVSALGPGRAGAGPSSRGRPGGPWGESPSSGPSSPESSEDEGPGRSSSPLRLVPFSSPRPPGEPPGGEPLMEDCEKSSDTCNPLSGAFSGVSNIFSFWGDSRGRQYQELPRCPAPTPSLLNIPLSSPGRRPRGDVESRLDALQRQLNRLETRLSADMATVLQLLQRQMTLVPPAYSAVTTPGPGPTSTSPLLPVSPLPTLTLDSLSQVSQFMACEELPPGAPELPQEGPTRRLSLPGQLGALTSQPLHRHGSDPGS
Description: The hERG channel activity inhibition assay provides whole cell electrophysiological data about compound effects on the hERG K^+ channel function. Whole cell patch clamp methodology is generally considered to be the gold-standard determination of ion channel activity, rather than simply measuring channel binding. The standard testing procedure is to use 3 to 5 concentrations of compound at log dilutions with each concentration tested in triplicate (three cells). This allows a balance between achieving a reasonably accurate IC50 measurement against a broad concentration range, and reducing cell attrition that would occur during more protracted experiment durations. After completion of compound dose-response procedures, a known hERG channel inhibitor, such as astemizole, is applied as a positive control.

hERG = hERG (Homo sapiens, UniProt Q12809); assay: hERG competition binding assay (3H-astemizole); settings: HEK-293 cells stably expressing recombinant hERG channels, probe 3H-astemizole
hERG, sequence (Q12809 whole entry): as above
Description: The initial assay is a radioligand binding assay that tests the ability of the test compound to compete with ^3H-astemizole (a reference standard that binds to hERG channels with nM affinity) for binding to recombinant hERG channels stably expressed on human HEK-293 cells. […] This is usual for medium throughout screens but is not recommended in the FDA document and tends to give false positives, as evidenced by the results reported below.

anesthetized guinea pigs = assay: Cardiac QT interval prolongation assay; format: in vivo, guinea pig; settings: PO 15 mg/kg
Method: The QT interval studies are performed by evaluating compounds for effects on QT interval in Lead II electrocardiograms measured in anesthetized guinea pigs (Hirohashi et al., 1991), one of the species recommended in the FDA white paper. Vehicle or compound is administered orally at 15 mg/kg (dosing volume of 10 ml/kg) to groups of male guinea pigs (weighing 330-350 g), with 5 animals per group. […] Heart rate, arterial blood pressure, and QT intervals are measured at baseline, and at 15, 30, 45, and 60 min after compound administration. Sotalol administered iv at 0.3 mg/kg serves as the positive control compound. The QT intervals are corrected for changes in heart rate using both Bazett's and Fridericia's formulae. Any increase in QT interval values over baseline values exceeding the upper 95% confidence limit of the mean changes at the corresponding time point in the vehicle-treated control group for two consecutive observation times indicates significant QT interval prolongation in the individually treated animals.

activated glia = assay: Western blots of iNOS, COX-2, apoE production in activated glia cultures; format: cell-based; settings: 7.5 μM, western blot
Method: Cultures were treated with control buffer, C, or activated in the absence, A, or presence, A+188, of 7.5 μMW01-5-188WH. […] Bar=125 μm. […] A schematic of the experimental paradigm is shown. […] Bars=25 μm. […] Quantification of amyloid burden from all mice (n=5/group) was done by determination of the amyloid load. Data are mean±SEM. […] (C) Spontaneous alternation of mice in the Y-maze, a hippocampus-dependent spatial learning task, was measured for 10 days during the 7th and 8th week after the start of Aβ infusion. Data are mean±SEM of n=5 or 10 per group.

SMILES	IL-1β production [1]	IC50 (hERG K+ channel)	inhibition at 10 µM (hERG)	heart rate (anesthetized guinea pigs)	mean blood pressure (anesthetized guinea pigs)	TNFα production [1]	other results
Cc1cc(-c2ccccc2)nnc1N1CCN(c2ncccn2)CC1 [MW01-2-151SRM, 4-methyl-6-phenyl-3-(4-pyrimidin-2-ylpiperazin-1-yl)pyridazine]	suppress IL-1β in a concentration dependent manner	9.21 µM	8%	no significant effects	no significant effects	–	activated glia responses [1]: selective suppressor; stability in microsomes [2]: demonstrated; efficacy in the mouse model of human Aβ-induced neuroinflammation and neuronal injury ([3]; mouse, in vivo): showed efficacy; inflammatory response endpoints outside the brain ([3]; mouse, in vivo): did not suppress; oral availability [4]: orally available; cardiac QT interval (anesthetized guinea pigs; baseline, 15, 30, 45, 60 min, vs mean+2 SD of vehicle control): Neither compound increased
c1ccc(-c2ccc(N3CCN(c4ncccn4)CC3)nn2)cc1 [MW01-3-183WH, 2-(4-(6-phenylpyridazin-3-yl)piperazin-1-yl)pyrimidine]	suppressed both IL-1β and TNFα production in a concentration dependent manner	–	–	–	–	suppressed both IL-1β and TNFα production in a concentration dependent manner	–
c1ccc(-c2cc(-c3ccccc3)c(N3CCN(c4ncccn4)CC3)nn2)cc1 [MW01-5-188WH, 4,6-diphenyl-3-(4-pyrimidin-2-ylpiperazin-1-yl)pyridazine]	concentration-dependent inhibition	–	91%	no significant effects	no significant effects	concentration-dependent inhibition	COX-2 production (activated glia): does not suppress; apoE production (activated glia): does not suppress; iNOS production (activated glia): does not suppress; Accumulation of the NO metabolite, nitrite ([1]; concentrations up to 33 μM): not inhibited; number of F4/80 positive microglia in the hippocampus ([3]; daily oral […] for 2 weeks): decreased
Clc1cc(-c2ccccc2)nnc1N1CCN(c2ncccn2)CC1 [MW01-6-127WH, 4-chloro-6-phenyl-3-(4-pyrimidin-2-ylpiperazin-1-yl)pyridazine]	–	–	19%	–	–	–	–
c1ccc(-c2cc(-c3ccncc3)c(N3CCN(c4ncccn4)CC3)nn2)cc1 [MW01-6-189WH, 4-pyridyl-6-phenyl-3-(4-pyrimidin-2-ylpiperazin-1-yl)pyridazine]	–	4.81 µM	–	–	–	–	–
